Reference: patent US20240252552A1, “LIPOTEICHOIC ACID FROM STAPHYLOCOCCUS EPIDERMIDIS AND ITS USE TO MODULATE NEURONAL ACTIVITY VIA PD-1 INHIBITORY SIGNALLING IN NEURONS” (Northwestern University, priority 2023, published 2024)
Entries after “also recorded” stand apart in the source; their conditions may differ.

Tests used:
[1] = system: trigeminal ganglion (TG) neurons; assay: Real-time Ca2+ imaging (fura-2 AM) of ATP-stimulated TG neuronal cultures; type: cell-based, C57Bl/6 mice; conditions: TG neurons preincubated with MMG11
Excerpt: FIG. 8. […] Analysis with Student's t test, p<0.0001.
SELTA-induced inhibition of Ca^2+ influx is reversed by neutralizing PD-1. In the transduction of nociceptive signal, Ca^2+ influx through voltage-gated Ca^2+ channels is critical for neurotransmitter release and synaptic transmission (12-14). To investigate whether intracellular Ca^2+ dynamics in the afferents are affected by SELTA (8, 15), the inventor established in vitro trigeminal ganglion (TG) neuronal cultures from adult C57Bl/6 mice and performed real-time Ca^2+ imaging using fura-2 AM (FIG. 8). Cells were pretreated with vehicle or SELTA prior to stimulation with 20 uM ATP. TLR2 specificity of these effects were examined by using MMG11, a TLR2-specific antagonist (10) and PD-1 requirement was examined by pre-incubation with an anti-PD-1 antibody (16).

[2] = system: PD-1; assay: PD-1 expression in ex vivo dorsal root ganglion culture (immunofluorescence, qPCR); type: cell-based; conditions: ex vivo DRG, MMG11 + SELTA, TLR2 blockade
Excerpt: FIGS. 5A, 5B, 5C, 5D, and 5E. […] Scale bars=10 μm. (B) Distribution of intensity of PD-1 immunoreactivity in DRG based on the size of individual neurons in control (upper) and SELTA treatment (bottom). […] For all quantification analysis, a two-way ANOVA was used. *P<0.05, **P<0.01, #P<0.05. n=3 to 4 per group.
SELTA elevated PD-1 expression in primary sensory neurons. The inventor next examined PD-1 expression in the primary afferent neurons following direct exposure to SELTA. The inventor performed an ex vivo dorsal root ganglion (DRG) culture using DRG isolated at the levels of L2 to S1. Following 24-hour co-culture with SELTA, the expression of PD-1 was probed using immunofluorescence followed by confocal microscopy (FIG. 5A). To ascertain the cellular distribution of increased PD-1 expression, ImageJ analyses-based on individual cells were done and presented as the function of PD-1 immunoreactivity intensity to the cell size (FIG. 5B). Quantification was based on cell size-differential average fluorescence intensity (FIG. 5C). […] To further understand the expression of PD-1, immunoreactive intensities were normalized to the neuronal marker Neu-N (FIG. 5D). Changes were largely similar to FIG. 5C. The inventor next sought to examine whether the SELTA receptor TLR2 was involved in the modulation of PD-1 expression by SELTA. […]

CCOC(=O)c1ccc(CC(=O)c2ccc(O)c(O)c2O)o1 [MMG11]
effect of TLR2 blockade on SELTA-mediated inhibition of Ca2+ influx [1]: abrogated the SELTA mediated inhibition of Ca^2+ influx; also recorded: reverses SELTA-induced reduction of Ca2+ influx | effect on SELTA-induced PD-1 mRNA expression (qPCR) [2]: abrogated the elevation in PD-1 expression
